{
  "source": "patent US6525188B2",
  "about": "“Nuclear retinoic acid co-receptor” (Karo Bio Ab, priority 1994, dated 2003)",
  "system": "RXR / OR-1 on a DR4-containing promoter",
  "assay": "PAP reporter gene under DR4-containing promoter, transfected embryonal carcinoma P19 EC cells",
  "conditions": "100 nM 9-cis retinoic acid, 36 h, PAP activity",
  "protocol": "Embryonal carcinoma P19 EC cells were cultured in Dulbecco's modified Eagle's medium supplemented with 10% foetal calf serum, nonessential amino acids, penicillin (100 units/ml) and streptomycin (100 mg/ml). […] Cells were plated in duplicate in 35 mm Petri dishes and transfected at 30% confluency, using lipofectin reagent (Bethesada Research Laboratories, USA) according to the recommendations of the supplier.\nTransfections were repeated 6 times with different plasmid preparations and data from a representative experiment is presented here.\nSince OR-1 and RXR formed a specific complex on the DR4 sequence in vitro, coexpression of OR-1 in embryonal carcinoma (EC) cells that express endogenous RXR was tested to determine whether it could affect the activity of a reporter gene under the control of a DR4-containing promoter.",
  "data": [
    {"smiles": "CC1=C(/C=C/C(C)=C\\C=C\\C(C)=C\\C(=O)O)C(C)(C)CCC1", "note": "[9-cis retinoic acid]", "values": [
      {"measurement": "activation of RXR on a DR4-containing promoter", "setting": "EC cells with endogenous RXR, OR-1 expressed", "value": "activation"},
      {"measurement": "induction of RXR on a reporter containing DR4", "setting": "embryonal carcinoma (EC) cells with endogenous RXR, without OR-1 expression", "value": "no induction"}
    ]}
  ]
}
